This note sets out measurements from ChEMBL document CHEMBL4364250, “Improvement of Asparagine Ethylenediamines as Anti-malarial Plasmodium-Selective Proteasome Inhibitors” (J Med Chem, 2019).

Series [1] deals with Plasmodium falciparum. Kind of series: Resistance index, ratio of EC50 for erythrocytic stage of Plasmodium falciparum Dd2 harboring 20S beta5 proteasome A49S mutant to EC50 erythrocytic stage of Plasmodium falciparum Dd2. Format: functional.
In series [2] the test system is Plasmodium falciparum. Briefly: Antimalarial activity against erythrocytic stage of Plasmodium falciparum Dd2 measured after 72 hrs by SYBR green dye based fluorescence assay. Format: functional, organism-based. The following applies: Dd2, 72 h.
The test system of series [3] is Plasmodium falciparum. Kind of series: Antimalarial activity against erythrocytic stage of Plasmodium falciparum Dd2 harboring 20S beta2 proteasome A117D mutant measured after 72 hrs by SYBR green dye based fluorescence assay. Format: functional, organism-based. The note with it: Dd2, 72 h.
Series [4] concerns Plasmodium falciparum. Briefly: Resistance index, ratio of EC50 for erythrocytic stage of Plasmodium falciparum Dd2 harboring 20S beta6 proteasome A117D mutant to EC50 erythrocytic stage of Plasmodium falciparum Dd2.
Series [5] has as its system Plasmodium falciparum. Kind of series: Antimalarial activity against erythrocytic stage of Plasmodium falciparum Dd2 harboring 20S beta5 proteasome A49S mutant measured after 72 hrs by SYBR green dye based fluorescence assay. The note with it: Dd2, 72 h. Format: functional, organism-based.
Series [6] deals with Karpas-1106P. Briefly: Cytotoxicity against human KARPAS1106P cells. The format is cell-based.
Series [7] is described as follows: Inhibition of Plasmodium falciparum 20S proteasome beta5 subunit using suc-LLVY-AMC as substrate in presence of beta2 inhibitor WLW-VS.
The test system of series [8] is beta5 subunit of human 20S constitutive proteasome. Briefly: Selectivity ratio of IC50 for human beta5 20S constitutive proteasome to IC50 for Plasmodium falciparum 20S proteasome beta5 subunit. Format: toxicity. The note with it: read-out: Ratio IC50.
The subject of series [9] is beta5 subunit of human 20S immunoproteasome. Briefly: Selectivity ratio of IC50 for human beta5 20S immunoproteasome to IC50 for Plasmodium falciparum 20S proteasome beta5 subunit. The format is toxicity. The note with it: read-out: Ratio IC50.
The subject of series [10] is HepG2. Kind of series: Cytotoxicity against human HepG2 cells. Format: cell-based.
The subject of series [11] is Plasmodium falciparum. Briefly: Antimalarial activity against erythrocytic stage of Plasmodium falciparum 3D7 measured after 72 hrs by SYBR green dye based fluorescence assay. The following applies: 3D7, 72 h. The format is functional, organism-based.
Series [12] addresses T1, Proteasome subunit beta type-8 (Homo sapiens, UniProt P28062).
T1 sequence (P28062 whole entry): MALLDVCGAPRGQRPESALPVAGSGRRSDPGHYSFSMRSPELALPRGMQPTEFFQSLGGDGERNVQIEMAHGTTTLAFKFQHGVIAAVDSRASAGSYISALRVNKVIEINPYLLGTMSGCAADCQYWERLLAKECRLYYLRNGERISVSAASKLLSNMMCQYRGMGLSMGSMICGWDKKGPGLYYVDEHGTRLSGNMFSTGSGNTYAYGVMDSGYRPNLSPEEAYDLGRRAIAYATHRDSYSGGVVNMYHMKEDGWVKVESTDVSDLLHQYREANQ
Kind of series: Inhibition of human beta5 20S immunoproteasome using Ac-ANW-AMC as substrate.

Series [13] deals with T2, Proteasome Macropain subunit MB1 (Homo sapiens, UniProt P28074).
T2 sequence (P28074 whole entry): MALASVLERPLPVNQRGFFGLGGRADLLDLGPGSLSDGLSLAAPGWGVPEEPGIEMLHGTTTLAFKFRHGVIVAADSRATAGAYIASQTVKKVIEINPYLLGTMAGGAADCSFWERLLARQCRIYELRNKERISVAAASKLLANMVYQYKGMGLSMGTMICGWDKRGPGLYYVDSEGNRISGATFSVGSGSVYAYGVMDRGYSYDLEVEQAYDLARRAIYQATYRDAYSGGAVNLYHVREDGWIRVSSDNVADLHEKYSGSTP
Kind of series: Inhibition of human beta5 20S constitutive proteasome using suc-LLVY-AMC as substrate.

pEC50, pIC50: −log10 of the molar value.

Turning to `CC(C)(C)NC(=O)C[C@H](NC(=O)CCc1ccccc1)C(=O)NCCNC(=O)c1cccc(-c2ccccc2)c1`, the “Ratio EC50” value in [1] is 541; in series [4], 130. Also, the negative logarithm of the EC50 (pEC50) in series [2] is 8.60; in series [3], 6.49; in series [5], 5.87.
The corresponding values for `CC(C)C[C@H](NC(=O)[C@H](Cc1ccccc1)NC(=O)c1cnccn1)B(O)O` [BORTEZOMIB] are 2.4, 0.25, 6.38, 6.97 and 5.99.
For `Cc1ccc(S(=O)(=O)N[C@@H](CC(=O)NC(C)(C)C)C(=O)NCCNS(=O)(=O)c2ccccc2)cc1`, the negative-log EC50 (pEC50) in [6] was below 4.95; in series [10], below 4.96; in series [11], below 5.56. The pIC50 in series [7] was 4.82; in [12] it was 5.54; in series [13], below 4.00. Moreover, the selectivity ratio in series [8] is above 6.6; in series [9], 0.2.
`Cc1ccc(S(=O)(=O)N[C@@H](CC(=O)NC(C)(C)C)C(=O)NCCNC(=O)c2cccc(F)c2)cc1`: the negative logarithm of the EC50 (pEC50) in series [6] is below 4.95; in series [10], below 4.96; in series [11], 7.93. In addition, the results for the pIC50 in series [7], in series [12] and in [13] were 7.53, 6.89 and 5.66, respectively. In addition, the selectivity ratio was 74 in series [8] and 4.3 in [9].
Take `Cc1ccc(S(=O)(=O)N[C@@H](CC(=O)NC(C)(C)C)C(=O)NCCNC(=O)c2cccc(O)c2)cc1`: the pEC50 in series [6] was below 4.95; in series [10] it was below 4.96; in series [11], 7.81. Also, the pIC50 in series [7] is 7.65; in series [12] it was 6.32; in [13], 5.36. Also, the selectivity ratio came out at 195 in series [8] and 21 in series [9].
Consider `Cc1ccc(S(=O)(=O)N[C@@H](CC(=O)NC(C)(C)C)C(=O)NCCNC(=O)c2cccc(C(F)(F)F)c2)cc1`, for which the pEC50 was below 4.95 in series [6], below 4.96 in series [10] and 6.78 in series [11]. Further, the pIC50 in [7] is 6.60; in series [12], 6.12; in [13], 4.43. Besides, the selectivity ratio in [8] is 148; in [9], 3.1.
On to `COc1cc(OC)cc(C(=O)NCCNC(=O)[C@H](CC(=O)NC(C)(C)C)NS(=O)(=O)c2ccc(C)cc2)c1`, for which the negative-log EC50 (pEC50) was below 4.95 in series [6], below 4.96 in series [10] and below 5.56 in [11]. Also, the results for the pIC50 in series [7], in [12] and in [13] were 5.39, 5.00 and below 4.00, respectively. Moreover, the selectivity ratio in series [8] is above 24.7; in [9], 2.5.
As for `Cc1ccc(S(=O)(=O)N[C@@H](CC(=O)NC(C)(C)C)C(=O)NCCNC(=O)c2ccccc2O)cc1`, the pEC50 in series [6] is below 4.95; in [10] it was below 4.96; in series [11], 8.02. Further, the results for the negative logarithm of the IC50 (pIC50) in series [7], in series [12] and in series [13] were 8.21, 7.62 and 6.39, respectively. The selectivity ratio in series [8] came to 67; in [9], 4.
Consider `Cc1ccc(S(=O)(=O)N[C@@H](CC(=O)NC(C)(C)C)C(=O)NCCNC(=O)c2ccc(F)c(F)c2)cc1`, for which the negative-log EC50 (pEC50) was below 4.95 in [6], below 4.96 in [10] and 7.16 in [11]. For the same molecule, the results for the negative logarithm of the IC50 (pIC50) in [7], in series [12] and in series [13] were 6.90, 6.71 and 5.22, respectively. Besides, the selectivity ratio in [8] was determined as 48; in [9], 1.5.
As to `Cc1ccc(S(=O)(=O)N[C@@H](CC(=O)NC(C)(C)C)C(=O)NCCNC(=O)c2ccccn2)cc1`, the results for the pEC50 in series [6], in [10] and in series [11] were below 4.95, below 4.96 and below 5.56, respectively. Further, the pIC50 in [7] was 5.96; in series [12], 5.68; in [13], 4.53. For the same molecule, the selectivity ratio in series [8] came out at 27; in series [9] it was 1.9.
Consider `Cc1ccc(S(=O)(=O)N[C@@H](CC(=O)NC(C)(C)C)C(=O)NCCNC(=O)c2cc(Cl)ccn2)cc1`, for which the negative-log EC50 (pEC50) was below 4.95 in series [6], below 4.96 in series [10] and 6.55 in series [11]. The negative-log IC50 (pIC50) in series [7] is 6.04; in series [12], 5.45; in [13], below 4.00. For the same molecule, the selectivity ratio in series [8] is above 110; in [9] it was 3.9.
`Cc1ccc(S(=O)(=O)N[C@@H](CC(=O)NC(C)(C)C)C(=O)NCCNC(=O)c2ccc(Cl)cc2)cc1`: the pEC50 in series [6] was below 4.95; in [10], below 4.96; in [11] it was 6.89. For the same molecule, the pIC50 was 6.95 in [7], 7.42 in [12] and 5.30 in series [13]. The selectivity ratio in series [8] came to 44; in [9], 0.3.
For `Cc1ccc(S(=O)(=O)N[C@@H](CC(=O)NC(C)(C)C)C(=O)NCCNC(=O)Nc2ccccc2)cc1`, the negative-log EC50 (pEC50) in series [6] was below 4.95; in [10], below 4.96; in series [11], below 5.56. In addition, the pIC50 was 5.59 in [7], 5.68 in [12] and below 4.00 in series [13]. Moreover, the selectivity ratio in series [8] is above 3.9; in series [9], 0.8.
Take `Cc1ccc(S(=O)(=O)N[C@@H](CC(=O)NC(C)(C)C)C(=O)NCCNC(=O)c2c(O)cccc2F)cc1`: the negative-log EC50 (pEC50) is below 4.95 in [6], below 4.96 in [10] and 7.08 in series [11]. The pIC50 in series [7] was 7.39; in series [12], 7.14; in [13], 6.27. Moreover, the values for the selectivity ratio in series [8] and in series [9] were 13 and 1.8, respectively.
On to `Cc1ccc(S(=O)(=O)N[C@@H](CC(=O)NC(C)(C)C)C(=O)NCCNC(=O)c2cccc(C#N)c2)cc1`, for which the negative logarithm of the EC50 (pEC50) in [6] is below 4.95; in [10] it was below 4.96; in [11] it was 6.88. Also, the pIC50 in [7] is 6.41; in series [12], 5.33; in [13], 4.40. Further, the selectivity ratio in series [8] stood at 103; in series [9], 12.
For `Cc1ccc(S(=O)(=O)N[C@@H](CC(=O)NC(C)(C)C)C(=O)NCCNC(=O)c2ccccc2Cl)cc1`, the results for the pEC50 in [6], in series [10] and in series [11] were below 4.95, below 4.96 and 7.01, respectively. Besides, the negative logarithm of the IC50 (pIC50) is 6.68 in series [7], 5.85 in series [12] and 4.58 in series [13]. Moreover, the selectivity ratio in [8] stood at 123; in [9], 6.6.
In the case of `Cc1ccc(S(=O)(=O)N[C@@H](CC(=O)NC(C)(C)C)C(=O)NCCNC(=O)c2cc(C)ccn2)cc1`, the negative-log EC50 (pEC50) was below 4.95 in [6], below 4.96 in [10] and 6.64 in series [11]. Besides, the pIC50 was 6.19 in [7], 5.51 in series [12] and below 4.00 in series [13]. Moreover, the results for the selectivity ratio in series [8] and in [9] were above 156 and 4.9, respectively.
On to `Cc1ccc(S(=O)(=O)N[C@@H](CC(=O)NC(C)(C)C)C(=O)NCCNC(=O)c2cc(Cl)ccc2Cl)cc1`, for which the results for the pEC50 in series [6], in series [10] and in series [11] were below 4.95, below 4.96 and 6.93, respectively. Besides, the negative-log IC50 (pIC50) in series [7] is 6.71; in series [12], 5.25; in series [13], below 4.00. The values for the selectivity ratio in series [8] and in [9] were above 507 and 28.7, respectively.
For `Cc1ccc(S(=O)(=O)N[C@@H](CC(=O)NC(C)(C)C)C(=O)NCCNC(=O)c2cccc(C(C)C)c2)cc1`, the pEC50 in [6] was below 4.95; in series [10], below 4.96; in series [11], 7.01. For the same molecule, the results for the negative logarithm of the IC50 (pIC50) in series [7], in [12] and in series [13] were 7.39, 6.70 and 5.04, respectively. Moreover, the figures for the selectivity ratio in series [8] and in series [9] were 225 and 5, respectively.
In the case of `Cc1ccc(S(=O)(=O)N[C@@H](CC(=O)NC(C)(C)C)C(=O)NCCNC(=O)NCc2ccccc2)cc1`, the negative logarithm of the EC50 (pEC50) in series [6] was below 4.95; in series [10], below 4.96; in series [11] it was 5.67. The pIC50 in series [7] was 5.56; in series [12], 5.63; in series [13], 4.33. Moreover, the selectivity ratio in series [8] came to 16.8; in series [9] it was 0.85.

The term pEC50 denotes −log10 of the EC50, conventionally taken in molar units. Read a low pEC50 as a large EC50. By pIC50 is commonly meant −log10 of the IC50, conventionally taken in molar units.
